Data from US12486274B2, “Substituted pyrazolo-pyrimidines and uses thereof” (Verge Analytics, Inc., priority 2020, dated 2025).

Target: Full length human recombinant PIKFYVE (Homo sapiens (Human), UniProt Q9Y2I7)
Test: Inhibition of PIKfyve (microfluidic electrophoresis kinase assay)
Format: biochemical
Settings: 2 nM enzyme, PI3P/PS substrate, 3 h at room temperature, 12 concentrations
How it was run: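 GST-tagged full-length PIKfyve (baculovirus-expressed, 2 nM final) with fluorescent PI3P/PS substrate (1 μM PI3P) and […] in HEPES pH 7.5 with Mg2+/Mn2+, 1% DMSO, 3 h at room temperature; 12 concentrations. PI(3,5)P product and substrate separated by microfluidic electrophoresis; % inhibition from product/sum ratio.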

Sequence of Full length human recombinant PIKFYVE (Q9Y2I7 whole entry): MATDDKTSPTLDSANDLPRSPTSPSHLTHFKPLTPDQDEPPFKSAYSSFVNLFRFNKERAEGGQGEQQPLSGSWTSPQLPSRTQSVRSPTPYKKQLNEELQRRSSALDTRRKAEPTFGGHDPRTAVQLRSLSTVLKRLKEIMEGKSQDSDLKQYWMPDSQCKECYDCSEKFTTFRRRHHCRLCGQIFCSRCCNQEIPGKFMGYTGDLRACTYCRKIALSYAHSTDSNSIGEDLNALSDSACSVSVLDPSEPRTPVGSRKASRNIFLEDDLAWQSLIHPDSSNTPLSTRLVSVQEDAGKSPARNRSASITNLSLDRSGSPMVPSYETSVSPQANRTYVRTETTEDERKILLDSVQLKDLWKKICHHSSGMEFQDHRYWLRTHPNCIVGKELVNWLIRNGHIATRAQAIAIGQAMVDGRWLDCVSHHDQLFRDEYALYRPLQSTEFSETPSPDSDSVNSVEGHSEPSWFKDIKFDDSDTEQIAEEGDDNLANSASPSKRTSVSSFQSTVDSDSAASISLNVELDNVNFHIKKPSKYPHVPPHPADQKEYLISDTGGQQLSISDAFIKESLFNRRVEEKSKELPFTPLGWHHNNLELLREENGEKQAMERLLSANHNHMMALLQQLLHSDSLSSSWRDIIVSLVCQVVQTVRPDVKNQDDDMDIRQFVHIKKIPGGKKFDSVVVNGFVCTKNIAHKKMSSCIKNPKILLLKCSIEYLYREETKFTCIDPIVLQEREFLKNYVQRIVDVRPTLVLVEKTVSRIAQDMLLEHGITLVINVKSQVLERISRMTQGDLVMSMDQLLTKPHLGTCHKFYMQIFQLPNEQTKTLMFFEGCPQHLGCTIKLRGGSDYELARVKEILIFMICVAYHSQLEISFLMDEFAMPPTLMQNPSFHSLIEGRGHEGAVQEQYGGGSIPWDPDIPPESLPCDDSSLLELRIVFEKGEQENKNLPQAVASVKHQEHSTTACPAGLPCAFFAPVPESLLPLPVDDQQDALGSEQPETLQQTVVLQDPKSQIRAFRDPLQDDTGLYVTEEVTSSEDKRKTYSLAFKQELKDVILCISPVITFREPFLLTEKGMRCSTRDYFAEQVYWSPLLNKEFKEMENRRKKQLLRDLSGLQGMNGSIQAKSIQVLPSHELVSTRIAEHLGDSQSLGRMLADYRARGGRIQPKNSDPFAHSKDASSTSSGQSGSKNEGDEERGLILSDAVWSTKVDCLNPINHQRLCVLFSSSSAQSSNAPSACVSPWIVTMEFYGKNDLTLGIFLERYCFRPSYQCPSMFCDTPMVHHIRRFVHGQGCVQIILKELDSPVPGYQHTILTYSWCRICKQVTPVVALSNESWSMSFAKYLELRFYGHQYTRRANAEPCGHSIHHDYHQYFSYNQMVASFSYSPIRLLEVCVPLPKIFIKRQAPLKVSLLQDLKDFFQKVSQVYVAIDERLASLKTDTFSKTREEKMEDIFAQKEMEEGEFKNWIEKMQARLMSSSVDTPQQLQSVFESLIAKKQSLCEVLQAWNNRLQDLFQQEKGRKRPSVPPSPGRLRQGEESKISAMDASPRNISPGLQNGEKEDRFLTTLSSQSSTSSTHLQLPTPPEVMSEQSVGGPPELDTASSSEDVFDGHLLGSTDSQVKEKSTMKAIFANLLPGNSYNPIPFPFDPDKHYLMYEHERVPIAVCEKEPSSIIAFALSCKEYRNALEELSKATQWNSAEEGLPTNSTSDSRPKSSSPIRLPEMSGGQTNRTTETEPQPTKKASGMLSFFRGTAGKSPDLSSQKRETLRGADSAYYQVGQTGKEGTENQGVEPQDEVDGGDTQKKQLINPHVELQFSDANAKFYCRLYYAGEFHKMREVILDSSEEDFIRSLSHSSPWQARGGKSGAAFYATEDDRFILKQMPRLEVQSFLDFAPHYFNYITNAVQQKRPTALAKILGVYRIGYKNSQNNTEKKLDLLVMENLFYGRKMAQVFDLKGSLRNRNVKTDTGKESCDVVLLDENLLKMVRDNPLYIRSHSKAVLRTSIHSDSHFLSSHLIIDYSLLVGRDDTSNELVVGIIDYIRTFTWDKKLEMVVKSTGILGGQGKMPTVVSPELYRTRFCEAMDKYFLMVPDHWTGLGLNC

Row | IC50 [nM] | SMILES
1 | 126 | Cc1cc(-c2cc3nc(-n4ccc(-c5cccc(Cl)c5)n4)cc(N4CCOCC4)n3n2)nn1CCN(C)C [Compound 97, 2-[3-[5-[3-(3-chlorophenyl)pyrazol-1-yl]-7-morpholino-pyrazolo[1,5-a]pyrimidin-2-yl]-5-methyl-pyrazol-1-yl]-N,N-dimethyl-ethanamine]
2 | 81.5 | COCCNC(=O)c1cc2nc(-n3ccc(-c4cccc(C)c4)n3)cc(N3CCOCC3)n2n1 [Example 23, N-(2-methoxyethyl)-7-morpholino-5-(3-(m-tolyl)-1H-pyrazol-1-yl)pyrazolo[1,5-a]pyrimidine-2-carboxamide]
3 | 63.3 | Cc1cccc(-c2ccn(-c3cc(N4CCOCC4)n4nc(C(=O)NC5COC5)cc4n3)n2)c1 [Example 42, 7-morpholino-N-(oxetan-3-yl)-5-(3-(m-tolyl)-1H-pyrazol-1-yl)pyrazolo[1,5-a]pyrimidine-2-carboxamide]
4 | 967 | c1ccc(-c2cc(Nc3cc(N4CCOCC4)n4nc(-c5ccncc5)cc4n3)n[nH]2)cc1 [Example 2, 7-morpholino-N-(5-phenyl-1H-pyrazol-3-yl)-2-(4-pyridyl)pyrazolo[1,5-a]pyrimidin-5-amine]
5 | 9.4 | Cc1cccc(-c2ccn(-c3cc(N4CCOCC4)n4nc(-c5cc(C)n(CCN(C)C)n5)cc4n3)n2)c1 [Compound 91, N,N-dimethyl-2-[5-methyl-3-[7-morpholino-5-[3-(m-tolyl)pyrazol-1-yl]pyrazolo[1,5-a]pyrimidin-2-yl]pyrazol-1-yl]ethanamine]
6 | > 10000 | Cc1cccc(-c2cnn(-c3cc(N4CCOCC4)n4nc(-c5ccncc5)cc4n3)c2)c1 [Example 10, 4-[5-[4-(m-tolyl)pyrazol-1-yl]-2-(4-pyridyl)pyrazolo[1,5-a]pyrimidin-7-yl]morpholine]
7 | 278 | Nc1cccc(-c2cc3nc(-n4ccc(-c5ccccc5)n4)cc(N4CCOCC4)n3n2)n1 [Compound 109, 6-[7-morpholino-5-(3-phenylpyrazol-1-yl)pyrazolo[1,5-a]pyrimidin-2-yl]pyridin-2-amine]
8 | 2.6 | Cc1cccc(-c2ccn(-c3cc(N4CCOCC4)n4nc(-c5cc(C)nn5C)cc4n3)n2)c1 [Compound 84, 4-[2-(2,5-dimethylpyrazol-3-yl)-5-[3-(m-tolyl)pyrazol-1-yl]pyrazolo[1,5-a]pyrimidin-7-yl]morpholine]
9 | 5240 | Cc1cc(-c2cc3nc(-n4ccc(-c5ccccn5)n4)cc(N4CCOCC4)n3n2)nn1CCN(C)C [Compound 92, N,N-dimethyl-2-[5-methyl-3-[7-morpholino-5-[3-(2-pyridyl)pyrazol-1-yl]pyrazolo[1,5-a]pyrimidin-2-yl]pyrazol-1-yl]ethanamine]
10 | 0.9 | Cc1cccc(-c2ccn(-c3cc(N4CCOCC4)n4nc(-c5cc(C)n(C)n5)cc4n3)n2)c1 [Compound 87, 4-[2-(1,5-dimethylpyrazol-3-yl)-5-[3-(m-tolyl)pyrazol-1-yl]pyrazolo[1,5-a]pyrimidin-7-yl]morpholine]
11 | 32.2 | Cc1cc(-c2cc3nc(-n4ccc(-c5ccccc5)n4)cc(N4CCOCC4)n3n2)nn1C [Compound 86, 4-[2-(1,5-dimethylpyrazol-3-yl)-5-(3-phenylpyrazol-1-yl)pyrazolo[1,5-a]pyrimidin-7-yl]morpholine]
12 | 1660 | c1ccc(-c2ccn(-c3cc(N4CCOCC4)n4nc(-c5ccncn5)cc4n3)n2)cc1 [Compound 68, 4-[5-(3-phenylpyrazol-1-yl)-2-pyrimidin-4-yl-pyrazolo[1,5-a]pyrimidin-7-yl]morpholine]
13 | 2.7 | Cc1cccc(-c2ccn(-c3cc(N4CCOCC4)n4nc(-c5nccs5)cc4n3)n2)c1 [Compound 111, 4-[5-[3-(m-tolyl)pyrazol-1-yl]-2-thiazol-2-yl-pyrazolo[1,5-a]pyrimidin-7-yl]morpholine]
14 | 112 | Cc1cccc(-c2ccn(-c3cc(N4CCOCC4)n4nc(C(=O)N[C@@H]5CCN(C)C5)cc4n3)n2)c1 [Compound 49, N-[(3R)-1-methylpyrrolidin-3-yl]-7-morpholino-5-[3-(m-tolyl)pyrazol-1-yl]pyrazolo[1,5-a]pyrimidine-2-carboxamide]
